Source: paper PMC7555825, “New Insights of the Zn(II)-Induced P2 × 4R Positive Allosteric Modulation: Role of Head Receptor Domain SS2/SS3, E160 and D170” (International Journal of Molecular Sciences, 2020)
Where a chain is given by its changes, count along the chain named. Blank lines part the entries; values can stand above or below the compound they belong to.

Tests used:
rP2 × 4R = molecular target: T1, rP2 × 4R (Rattus norvegicus, UniProt P51577); assay: ATP concentration–response curves, two-electrode voltage clamp in oocytes expressing wild type rP2 × 4R; format: cell-based
T1 construct: host or cells: Xenopus laevis oocytes (intranuclear plasmid injection, pcDNA3)
T1 sequence (P51577 1-388): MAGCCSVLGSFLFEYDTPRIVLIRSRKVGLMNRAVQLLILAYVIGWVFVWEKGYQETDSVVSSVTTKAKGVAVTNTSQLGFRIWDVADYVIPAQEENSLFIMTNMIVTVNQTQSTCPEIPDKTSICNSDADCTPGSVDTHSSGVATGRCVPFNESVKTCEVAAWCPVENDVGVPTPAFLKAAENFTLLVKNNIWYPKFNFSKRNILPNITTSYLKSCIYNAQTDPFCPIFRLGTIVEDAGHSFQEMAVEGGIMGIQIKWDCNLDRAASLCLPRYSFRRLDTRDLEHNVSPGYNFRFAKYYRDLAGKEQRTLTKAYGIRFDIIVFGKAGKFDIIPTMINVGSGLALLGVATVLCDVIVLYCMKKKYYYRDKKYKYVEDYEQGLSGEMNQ

rP2 × 4R E160Q mutant = molecular target: T2, rP2 × 4R E160Q mutant (Rattus norvegicus, UniProt P51577, E160Q); assay: ATP concentration–response curves, voltage clamp, E160Q mutant; format: cell-based; conditions: for EC50: ATP EC50, E160Q
T2 construct: host or cells: Xenopus laevis oocytes
T2 sequence (P51577 1-388 E160Q): T1 sequence (P51577 1-388) with E160Q

rP2 × 4R C149A mutant = molecular target: T3, rP2 × 4R C149A mutant (Rattus norvegicus, UniProt P51577, C149A); assay: ATP concentration–response curves, voltage clamp, C149A mutant; format: cell-based; conditions: for EC50: ATP EC50, C149A
T3 construct: host or cells: Xenopus laevis oocytes
T3 sequence (P51577 1-388 C149A): T1 sequence (P51577 1-388) with C149A

rP2 × 4R C132A mutant = molecular target: T4, rP2 × 4R C132A mutant (Rattus norvegicus, UniProt P51577, C132A); assay: ATP concentration–response curves, voltage clamp, C132A mutant; format: cell-based; conditions: for EC50: ATP EC50, C132A
T4 construct: expressed in transfected cells; host or cells: Xenopus laevis oocytes
T4 sequence (P51577 1-388 C132A): T1 sequence (P51577 1-388) with C132A

rP2 × 2R = molecular target: T5, rP2 × 2R (Rattus norvegicus, UniProt P49653); assay: cell-based
T5 sequence (P49653 1-472): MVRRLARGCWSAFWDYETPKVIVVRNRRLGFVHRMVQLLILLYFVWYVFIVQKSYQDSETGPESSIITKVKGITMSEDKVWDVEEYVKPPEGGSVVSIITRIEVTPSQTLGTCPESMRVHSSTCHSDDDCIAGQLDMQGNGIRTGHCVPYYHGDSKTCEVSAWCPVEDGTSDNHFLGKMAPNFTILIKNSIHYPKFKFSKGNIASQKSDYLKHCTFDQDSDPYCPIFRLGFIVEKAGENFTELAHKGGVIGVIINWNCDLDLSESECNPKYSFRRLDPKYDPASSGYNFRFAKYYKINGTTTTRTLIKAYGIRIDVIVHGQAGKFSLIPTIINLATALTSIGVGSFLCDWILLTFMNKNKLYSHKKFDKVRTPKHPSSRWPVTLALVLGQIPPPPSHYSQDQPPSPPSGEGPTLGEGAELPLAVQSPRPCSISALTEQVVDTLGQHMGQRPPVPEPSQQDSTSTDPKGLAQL

rP2 × 4R C126A mutant = molecular target: T6, rP2 × 4R C126A mutant (Rattus norvegicus, UniProt P51577, C126A); assay: ATP concentration–response curves, voltage clamp, C126A mutant
T6 sequence (P51577 1-388 C126A): T1 sequence (P51577 1-388) with C126A

[1] = ATP EC50, NEM treatment + Zn(II) group, control before treatment (first ATP curve)
[2] = ATP EC50, NEM treatment + vehicle group, control before treatment (first ATP curve)
[3] = ATP EC50, after 300 µM NEM + vehicle treatment, control = ATP curve after treatment

- EC50 (rP2 × 4R; [1]): 24.5 ± 9.1 µM
- EC50 (rP2 × 4R; [2]): 23 ± 8.3 µM
- EC50 (rP2 × 4R; ATP EC50, P2 × 4 WT, control): 27.5 ± 10.6 µM
- EC50 (rP2 × 4R; ATP EC50, after 300 µM DTNB + 10 µM Zn(II) treatment and washout, Figure S3): 79.8 ± 64.4 µM
- EC50 (rP2 × 4R; ATP EC50, after 300 µM NEM + 10 µM Zn(II) treatment, control = ATP curve after treatment): 44.9 ± 17.7 µM
- EC50 (rP2 × 4R; [3]): 23.8 ± 7 µM
- EC50 (rP2 × 4R; ATP EC50, control of the DTNB + Zn(II) experiment, Figure S3): 50.3 ± 16 µM
- EC50 (rP2 × 4R; ATP EC50, vehicle-treated oocytes (Barth's buffer), Figure 1A, without Zn(II)): 35.3 ± 6.6 µM
- Imax (rP2 × 4R; after 300 µM NEM + 10 µM Zn(II) treatment, ATP curve in presence of 10 µM Zn(II)): 9.3 ± 2.2 µA
- EC50 (rP2 × 4R E160Q mutant; +10 µM Zn(II)): 25.9 ± 7.1 µM
- EC50 (rP2 × 4R E160Q mutant; control): 23.8 ± 10.1 µM
- EC50 (rP2 × 4R C149A mutant; +10 µM Zn(II)): 22.5 ± 7.5 µM
- EC50 (rP2 × 4R C149A mutant; control): 39 ± 16.7 µM
- Imax (rP2 × 4R C149A mutant; C149A, +10 µM Zn(II)): 10.7 ± 3.5 µA
- EC50 (rP2 × 4R C132A mutant; +10 µM Zn(II)): 19.9 ± 13.4 µM
- EC50 (rP2 × 4R C132A mutant; control): 10.2 ± 3.8 µM
- EC50 (rP2 × 2R; [1]): 39.9 ± 8.3 µM
- EC50 (rP2 × 2R; [2]): 67.7 ± 13.3 µM
- EC50 (rP2 × 2R; ATP EC50, after 300 µM NEM + 30 µM Zn(II) treatment, control = ATP curve after treatment): 33 ± 7.4 µM
- EC50 (rP2 × 2R; [3]): 35 ± 9.2 µM
- EC50 (rP2 × 2R; ATP EC50, vehicle treatment, Figure 1D, without Zn(II)): 56.4 ± 7.4 µM
- EC50 (rP2 × 4R C126A mutant; ATP EC50, C126A, +10 µM Zn(II)): 9.3 ± 3 µM
- Imax (rP2 × 4R C126A mutant; C126A, +10 µM Zn(II)): 11.7 ± 4.8 µA
SMILES: Nc1ncnc2c1ncn2[C@@H]1O[C@H](COP(=O)(O)OP(=O)(O)OP(=O)(O)O)[C@@H](O)[C@H]1O [ATP, adenosine triphosphate]

SMILES: [Cl-].[Cl-].[Zn+2] [Zn(II), zinc chloride (ZnCl2)]
- fold reduction of ATP EC50 by Zn(II) (rP2 × 4R; 10 µM Zn(II), vehicle-treated oocytes): 3.82 fold
- fold leftward shift of ATP EC50 by Zn(II) (rP2 × 4R; WT, matched paired control oocytes, 10 µM Zn(II)): 3.45 fold
- Zn(II) modulation of the mutant (rP2 × 4R E160Q mutant; E160Q, 10 µM Zn(II)): resistant to Zn(II) modulation
- fold ATP EC50 decrease by Zn(II) (rP2 × 4R C149A mutant; C149A, 10 µM Zn(II)): 1.73 fold
- Zn(II) modulation of the mutant (rP2 × 4R C132A mutant; C132A, 10 µM Zn(II)): resistant to Zn(II) modulation
- fold reduction in ATP EC50 by Zn(II) (rP2 × 4R C126A mutant; C126A, 10 µM Zn(II)): 4.1 fold
